From patent publication US12616712B2 (LONZA SALES AG, priority 2019, dated 2026)

Tested on: GL261-Luc glioblastoma multiforme
Experiment: syngeneic GL261-Luc glioblastoma multiforme model
Assay type: in vivo
Conditions: mice, control groups, FIG. 7A
Method: The efficacy of exoSTING treatment in a syngeneic GL261-Luc glioblastoma multiforme model was assessed. Briefly, 5×10^5 GL261-LUC cells were administered via a 10 μl intra-striatal stereotactic injection to the mice. Tumor presence was confirmed by T1-weighted (T1W) MRI scan 15 days later. Four days after the MRI scan, when tumors were approximately 80-100 mm^3, stereotactic coordinates were used to administer 5 μl (˜120 ng) ExoSTING every 72 hours for 3 total injections to some of the animals. […] Anti-PDL-1 mAb was dosed twice weekly for 2 weeks (IOmpk IV). Phosphate buffered saline (PBS) alone and Temozolomide (TMZ) alone were dosed twice weekly for 2 weeks (30mpk IP). Mice were then followed for survival end-point.

## Cn1nnc2c(C(N)=O)ncn2c1=O [Temozolamide]
  survival: all animals succumbed to the tumor by day post tumor induction: ~40 days
